Results published in PMC5571211 (Scientific Reports, 2017).

Assays:
[1] = test system: HEK293 cells expressing 5-LOX (deficient in FLAP); experiment: 5-LOX product formation in HEK293 cells expressing 5-LOX alone; type: cell-based; details: HEK293 expressing 5-LOX, A23187 plus 3 µM AA
Procedure: HEK293 cells were cultured in monolayers (37 °C, 5% CO2) in DMEM containing FCS (10%), penicillin (100 U/mL) and streptomycin (100 µg/mL). HEK293 cell lines stably expressing 5-LOX with or without FLAP were selected using geneticin (400 µg/mL) with or without hygromycin (200 µg/mL), respectively, as previously described. Transfection of HEK293 was performed using pcDNA3.1 plasmids and lipofectamine according to the manufacturer’s instructions (Invitrogen, Darmstadt, Germany).
For analysis of 5-LOX product formation in HEK293 cells stably expressing 5-LOX with or without FLAP, cells were harvested by trypsinization, pelleted (1,200 rpm, 5 min, 4 °C) and resuspended in PGC buffer to a final concentration of 1 × 10^6 cells/mL. Aliquots were pre-incubated with test compounds or 0.1% DMSO for 15 min, respectively, and stimulated with 2.5 µM A23187 and 3 µM AA.

recombinant human COX-2 = target: T1, recombinant human COX-2 (Homo sapiens, UniProt P35354); experiment: COX-2 activity, cell-free (12-HHT formation); type: biochemical; details: 10 µM
T1 construct: purchased Cayman Chemical (Biomol, Hamburg, Germany)
T1 sequence (P35354 18-604): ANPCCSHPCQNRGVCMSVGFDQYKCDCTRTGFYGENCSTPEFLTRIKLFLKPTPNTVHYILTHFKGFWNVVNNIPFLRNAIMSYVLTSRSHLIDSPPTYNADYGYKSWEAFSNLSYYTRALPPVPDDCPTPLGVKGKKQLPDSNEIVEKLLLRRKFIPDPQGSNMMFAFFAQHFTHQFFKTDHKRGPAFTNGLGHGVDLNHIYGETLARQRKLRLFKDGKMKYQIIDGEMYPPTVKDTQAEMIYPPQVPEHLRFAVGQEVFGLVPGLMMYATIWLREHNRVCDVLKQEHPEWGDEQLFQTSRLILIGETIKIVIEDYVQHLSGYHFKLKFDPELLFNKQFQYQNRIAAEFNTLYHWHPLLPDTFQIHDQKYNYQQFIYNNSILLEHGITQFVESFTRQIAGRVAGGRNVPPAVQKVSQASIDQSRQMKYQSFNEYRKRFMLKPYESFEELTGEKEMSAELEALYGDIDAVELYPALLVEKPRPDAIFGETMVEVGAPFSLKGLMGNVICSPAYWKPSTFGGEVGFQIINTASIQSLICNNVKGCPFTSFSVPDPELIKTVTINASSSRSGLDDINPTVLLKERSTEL
Procedure: COX activity was assayed by using purified ovine COX-1 and recombinant human COX-2, respectively. Enzymes were diluted in Tris buffer (100 mM, pH 8) supplemented with glutathione (5 mM), EDTA (100 µM) and hemoglobin (5 µM) to a final concentration of 50 U/mL (COX-1) or 20 U/mL (COX-2) and pre-incubated with test compounds or vehicle (0.1% DMSO) for 5 min at RT. After 30 sec at 37 °C, reactions were started with 5 µM AA (COX-1) or 2 µM AA (COX-2) and stopped after 5 min at 37 °C by addition of one volume of ice-cold methanol. Solid phase extraction was performed as described above after addition of 200 ng of internal PGB1 standard and COX product formation was determined by analysis of 12-HHT formation as reported before.

[2] = test system: AA release (cPLA2) in neutrophils; experiment: [3H]-labeled arachidonic acid release in neutrophils; type: cell-based, human; details: [3H]AA-pre-labelled neutrophils; diflapolin 1 µM, RSC-3388 10 µM
Procedure: Freshly isolated human neutrophils were resuspended in RPMI 1640 medium to a final cell density of 10^7 cells/mL and incubated with 0.5 µCi/mL of [^3H]-labeled arachidonic acid ([^3H]-AA), corresponding to a concentration of 5 nM of the fatty acid, for 2 hrs (37 °C, 5% CO2). Cells were washed twice to remove unincorporated [^3H]-AA and resuspended in PBS containing glucose (0.1%), fatty acid-free BSA (2 mg/mL) and CaCl2 (1 mM). […] The reaction was stopped on ice and cells were centrifuged at 1,200 rpm (10 min, 4 °C). The collected supernatants were combined with 2 mL of liquid scintillation counting solution (Rotiszint eco plus, Carl Roth, Karlsruhe, Germany) and assayed for radioactivity by scintillation counting (Micro Beta Trilux, Perkin Elmer, Waltham, MA).

mPGES-1 [3] = target: T2, mPGES-1 (Homo sapiens, UniProt O14684); experiment: mPGES-1 activity in microsomes of IL-1β-stimulated A549 cells; type: biochemical; details: cell-free, up to 10 µM
T2 construct: A549 cells were cultivated in DMEM medium containing FCS (2%) and IL-1β (2 ng/mL) for 72 h; endogenous in cells; host or cells: A549 cells, IL-1β-induced, microsomal fraction
T2 sequence (O14684 1-152): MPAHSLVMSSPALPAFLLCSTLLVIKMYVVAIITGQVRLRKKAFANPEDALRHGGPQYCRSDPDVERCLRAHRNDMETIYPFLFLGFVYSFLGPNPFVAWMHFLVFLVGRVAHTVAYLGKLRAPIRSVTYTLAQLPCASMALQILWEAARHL
Procedure: To perform the analysis of microsomal PGE2 synthase (mPGES)-1 activity, microsomal preparations of A549 cells were obtained as described before. Briefly, A549 cells were cultivated in DMEM medium containing FCS (2%) and IL-1β (2 ng/mL) for 72 h (37 °C, 5% CO2). Cells were harvested and resuspended in homogenization buffer consisting of potassium phosphate (0.1 M, pH 7.4), phenylmethanesulfonyl fluoride (1 mM), soybean trypsin inhibitor (60 µg/mL), leupeptin (1 µg/mL), glutathione (2.5 mM), and sucrose (250 mM). After freezing the cells in liquid nitrogen and sonication (3 × 20 s), a differential centrifugation at 10,000 g (10 min, 4 °C) and 174,000 × g (60 min, 4 °C) was performed and pellets were resuspended in homogenization buffer. […] After stimulation (1 min, 4 °C) with 20 µM PGH2 the reaction was terminated by addition of stop solution containing FeCl3 (40 mM), citric acid (80 mM), and 11β-PGE2 (10 µM as internal standard) and analyzed for PGE2 product formation by RP-HPLC as reported before.

monocytes = experiment: Acute cytotoxicity, MTT assay in monocytes; type: cell-based, human; details: 24 or 48 hrs; diflapolin 10 µM, staurosporine 3 µM
Procedure: Acute cytotoxicity of the compounds was determined using freshly isolated monocytes. Cells (0.2 × 10^6) per sample were seeded in 100 µL buffer on 96-well plates and treated with the test compounds and appropriate controls for 24 or 48 hrs (37 °C, 5% CO2). After addition of MTT (5 mg/mL) for 2 h (37 °C, 5% CO2), cells were lysed by SDS treatment (10%, pH 4.5) for 16–20 hrs and formazan formation was determined by measurement of absorbance at 570 nm.

mPGES-1 [4] = target: T2, mPGES-1; details: cited from earlier work

Structure (SMILES) | inhibition of 5-LOX product formation [1] | inhibition of COX-2 activity (recombinant human COX-2) | release of AA upon A23187-stimulation [2] | inhibition of mPGES-1 activity (mPGES-1 [3]) | viability of monocytes, MTT assay (monocytes) | inhibition of MAPEG family member mPGES-1 (mPGES-1 [4])
Cc1cc(OCc2nc3ccccc3s2)ccc1NC(=O)Nc1ccc(Cl)c(Cl)c1 [diflapolin, N-[4-(benzothiazol-2-ylmethoxy)-2-methylphenyl]-N′-(3,4-dichlorophenyl)urea] | hardly impaired | did not significantly inhibit | did not inhibit | failed to inhibit | did not affect the viability | 
CC(C)c1ccc2c(c1)c(SC(C)(C)C)c(CC(C)(C)C(=O)O)n2Cc1ccc(Cl)cc1 [MK886, 3-[1-(4-chlorobenzyl)-3-t-butyl-thio-5-isopropylindol-2-yl]-2,2 - dimethylpropanoic acid] |  |  |  |  |  | inhibit
